Where “and” joins values, the source holds several entries; their conditions need not be identical. Equal values may be shown once.
How the values were obtained:
[1] = system: P. yoelii blood-stage infection; assay: Single-dose cure of blood-stage murine malaria; format: in vivo, Plasmodium yoelii; conditions: for blood stage in vivo efficacy, single dose cure: lowest single oral dose curing all four mice, day 30
Experimental: (§1) On day 5, a drop of blood was taken from the tail, and a blood smear was prepared, fixed with methanol, and stained with Giemsa. The operator then examined the stained smear microscopically to determine percent parasitemia. […] In this model, animals were inoculated exactly as for the 4 day test on day 0; however, drug was administered only on day 1, whereas smears were made on day 5 and again weekly thereafter for animals that remained aparasitemic. Animals that remained aparasitemic on day 30 were scored as cures.
The effectiveness of selected 3-biaryl ELQs and prodrugs was assessed vs the blood-stage infection for single-dose cures. Mice were infected iv with 3.5 × 10^4P. yoelii infected RBCs as described for the 4 day test above. Drug administration occurred on the day after inoculation (day 1). Test agents were dissolved in PEG-400 and administered ig once. On the fifth day, blood films were prepared, and % parasitemia was assessed. Animals remaining parasite-free for 30 days after drug administration were considered cured. The initial dosing range was 0.25, 0.5, 1, 3, and 10 mg/kg, including a control. Experiments were performed with four mice per group to ensure statistical accuracy. The reported parameter for these studies is the lowest single dose that provides a cure to all four animals in the group.

[2] = system: P. yoelii blood-stage infection; conditions: mice; for blood stage in vivo efficacy, 4 day Peters test results, NRD (nonrecrudescence dose): oral gavage days 1-4, followed to day 30
Experimental: as §1
The P. yoelii 4 day test monitors suppression of patent infection in female CF1 mice. The test began with the inoculation (iv) of parasitized erythrocytes (3.5 × 10^4P. yoelli) (from a donor animal) on the first day of the experiment (D0). […] Initially, the 3-biaryl-ELQs were tested at doses of 0.0025, 0.005, 0.01, 0.03, 0.1, 0.3, 1.0, and 10 mg/kg/day, including a vehicle-only (PEG400) control. After completion of drug treatment, a blood sample was collected (by pricking the tail vein) for determination of parasite burden beginning on the day after the final dose (D5). Percent parasitemia was assessed by direct microscopic analysis of Giemsa-stained blood smears. […] Animals with observable parasitemia following the experiment were euthanized; animals cleared of parasites from the bloodstream were observed daily with assessment of parasitemia performed weekly until day 30, at which point the animals were scored as cured of infection. […] Nonlinear regression analysis was used for objective determination of ED50’s and ED90’s from the accumulated data as well as the nonrecrudescence dose (NRD). The 4 day test protocol was reviewed and approved by the local IACUC board at the Portland VA Medical Center. Experiments were performed with four mice per group to ensure statistical accuracy.

[3] = system: P. yoelii sporozoites (liver stage); assay: Causal prophylaxis, sporozoite challenge in mice; conditions: 1.0 mg/kg single oral dose 1 h after 10,000 P. yoelii sporozoites iv; followed 30 days
Experimental: For this study, mice were inoculated with 10,000 P. yoelii sporozoites via tail vein injections, and drug was administered by gavage an hour later and only once. We monitored for the presence of blood-stage parasites as a measure of liver-stage infection.
Mice were inoculated with 10,000 sporozoites via tail vein injection of CF1 mice treated with or without drug (dissolved in PEG400) 1 h after inoculation. […] Additional monitoring for blood-stage infection was continued for a 30 day period to confirm true causal prophylaxis against P. yoelii challenge. […] Testing involved the use of four animals per group for statistical accuracy. […] A minimum of 5000 red blood cells were examined to establish blood-stage infection. Blood smears were fixed with methanol, stained with Giemsa, and viewed under oil immersion at 1000× magnification under standard light microscopy.

[4] = system: P. falciparum drug-sensitive D6 strain; assay: SYBR Green I antiplasmodial assay, D6 strain; format: cell-based; conditions: Plasmodium falciparum, D6, 72 h, read-out: P. falciparum IC50 values, D6
Experimental: (§2) All of this information is stored in a database with information relating to chemical structure, physical chemical properties, cross resistance patterns, mammalian cell cytotoxicity, enzyme inhibitor profiles, and synthesis details. Pharmacological data and in vivo efficacy data are also stored in the database for molecules of particular interest. […] We synthesized the compound in an initial batch size of about 800 mg as described above. […] Fluorescence readings were captured with a fluorescence plate reader and processed by nonlinear regression analysis using the GraphPad Prism software to provide IC50 values for each determination. Stock solutions were freshly prepared daily in DMSO in glass vials.
(§3) Laboratory strains of P. falciparum were cultured in human erythrocytes by standard methods. The parasites were grown in culture medium with fresh human erythrocytes maintained at 2% hematocrit at 37 °C in low-oxygen conditions (5% O2, 5% CO2, 90% N2). […] Cultures were maintained at less than 10% parasitemia by transfer of infected cells to fresh erythrocytes and culture medium every 3 or 4 days.
(§4) SYBR green I assay. In vitro antiplasmodial activity was assessed using a published SYBR Green I fluorescence-based method.[20] The drugs were added to 96-well plates using twofold serial dilutions in complete medium. […] Asynchronous P. falciparum parasites were diluted with uninfected erythrocytes and added to the wells to give a final culture volume of 100 μL at 2% hematocrit and 0.2% parasitemia. […] The parasites were then lysed by adding 100 μL of SYBR green I lysis buffer containing 0.2 μL/ml SYBR green I dye (10,000×) in 20 mM Tris (pH 7.5), 5 mM EDTA, 0.008% (wt/vol) saponin, and 0.08% (v/v) Triton X-100. The plates were incubated at room temperature for an hour in the dark. […] If the IC50 value fell outside of the initially tested range, then the range was adjusted up or down, and the assay was repeated twice.

[5] = system: P. falciparum ELQ-300-resistant D1 clone; assay: microbe, parasite or virus in culture; format: cell-based; conditions: Plasmodium falciparum, 72 h, read-out: P. falciparum IC50 values, D1
[6] = system: P. falciparum atovaquone-resistant clinical isolate Tm90-C2B; assay: SYBR Green I antiplasmodial assay, Tm90-C2B; format: cell-based; conditions: Plasmodium falciparum, TM90, 72 h, read-out: P. falciparum IC50 values, Tm90-C2B
Experimental: as §2, §3, §4

[7] = HepG2 cytotoxicity / mitochondrial toxicity (TiterGlo ATP, galactose medium); conditions: human, HepG2 cells
[8] = system: P. falciparum multidrug-resistant Dd2 strain; assay: microbe, parasite or virus in culture; format: cell-based; conditions: Plasmodium falciparum, DD2, 72 h, read-out: P. falciparum IC50 values, Dd2
Experimental: as §2, §3, §4

[9] = Metabolic stability in liver microsomes, human; format: in vitro ADME
Experimental: (§5) […]. Samples were taken over the interval of 45 min and analyzed by LC–MS/MS for the presence of test compound. Ketanserin served as an internal standard for the metabolic rate of a drug with known intermediate stability. […].
(§6) The drug was incubated at 37 °C and 1 μM concentration in murine liver microsomes (Corning) for 45 min at a protein concentration of 0.5 mg/mL in potassium phosphate buffer at pH 7.4 containing 1.0 mM EDTA. The metabolic reaction was initiated by addition of NADPH and quenched with ice-cold acetonitrile at 0, 5, 15, 25, and 45 min.

[10] = Metabolic stability in liver microsomes, mouse; format: in vitro ADME; conditions: pooled mouse liver microsomes, pH 7.4
Experimental: as §5, §6

[11] = Metabolic stability in liver microsomes, rat; format: in vitro ADME
[12] = oral gavage days 1-4, parasitemia day 5, prodrugs dosed on molar equivalency to parent
[13] = pH 7.4, predicted intrinsic clearance

SMILES	IC50 [4] [nM]	IC50 [5] [nM]	IC50 [6] [nM]	IC50 at 24 h [7] [nM]	IC50 [8] [nM]	other results
CCN(CC)CCCC(C)Nc1ccnc2cc(Cl)ccc12 (centres unmarked) [CQ]	–	–	–	–	–	blood stage in vivo efficacy, single dose cure [1]: >64 mg/kg/day; blood stage in vivo efficacy, 4 day Peters test results, NRD (nonrecrudescence dose) [2]: >64 mg/kg/day
CCOC(=O)OCOc1c(-c2ccc(Oc3ccc(OC(F)(F)F)cc3)cc2)c(C)nc2cc(OC)c(Cl)cc12 [ELQ-331]	–	–	–	–	–	blood stage in vivo efficacy, single dose cure [1]: 3 mg/kg/day; lowest fully protective single dose cure ([1]; single oral dose day 1, aparasitemic day 30, four mice, parent-drug equivalent): 3 mg/kg; blood stage in vivo efficacy, 4 day Peters test results, NRD (nonrecrudescence dose) [2]: 1.0 mg/kg/day; blood stage in vivo efficacy, 4 day Peters test results, ED50 [2, 12]: 0.02 mg/kg/day; blood stage in vivo efficacy, 4 day Peters test results, ED90 [2, 12]: 0.05 mg/kg/day; liver stage in vivo, # mice protected/total [3]: completely protective and 4/4
COc1cc2[nH]c(C)c(-c3ccc(-c4cccc(OC(F)(F)F)c4)cc3)c(=O)c2cc1Cl [ELQ-604, 6-Chloro-7-methoxy-2-methyl-3-(3′-(trifluoromethoxy)-[1,1′-biphenyl]-4-yl)quinolin-4(1H)-one]	0.6	> 250	0.5	> 10000	0.5	–
COc1cc2[nH]c(C)c(-c3ccc(-c4ccc(Cl)cc4)cc3)c(=O)c2cc1Cl [ELQ-637, 6-Chloro-3-(4′-chloro-[1,1′-biphenyl]-4-yl)-7-methoxy-2-methylquinolin-4(1H)-one]	3.4	> 250	3	> 10000	7.1	–
COc1cc2[nH]c(C)c(-c3ccc(-c4cccc(C(F)(F)F)c4)cc3)c(=O)c2cc1Cl [ELQ-646, 6-Chloro-7-methoxy-2-methyl-3-(3′-(trifluoromethyl)-[1,1′-biphenyl]-4-yl)quinolin-4(1H)-one]	1.1	> 250	1	> 10000	2.7	–
COc1cc2[nH]c(C)c(-c3ccc(-c4ccc(C(F)(F)F)cc4)cc3)c(=O)c2cc1Cl [ELQ-647, 6-Chloro-7-methoxy-2-methyl-3-(4′-(trifluoromethyl)-[1,1′-biphenyl]-4-yl)quinolin-4(1H)-one]	3.5	> 250	3.5	> 10000	7.8	–
COc1cc2[nH]c(C)c(-c3ccc(-c4ccc(OC(F)(F)F)cc4)cc3)c(=O)c2cc1F [ELQ-650, 6-Fluoro-7-methoxy-2-methyl-3-(4′-(trifluoromethoxy)-[1,1′-biphenyl]-4-yl)quinolin-4(1H)-one]	0.8	14	0.4	> 10000	1.1	–
COc1cc2[nH]c(C)c(-c3ccc(-c4ccc(C(F)F)cc4)cc3)c(=O)c2cc1Cl [ELQ-659, 6-Chloro-3-(4′-(difluoromethyl)-[1,1′-biphenyl]-4-yl)-7-methoxy-2-methylquinolin-4(1H)-one]	1.8	> 250	0.57	> 10000	1.8	–
O=C(c1ccc(F)cc1)C1CCN(CCn2c(=O)[nH]c3ccccc3c2=O)CC1 [ketanserin]	–	–	–	–	–	half-life at 1 μM ([9]; human, pH 7.4): 27.3 min; CLint scaled at 1 μM [9, 13]: 63.7 mL/min/kg; half-life at 1 μM ([10]; mouse liver microsomes 0.5 mg/mL, NADPH, 37 °C, 45 min, 1 μM): 19.1 min; CLint scaled at 1 μM ([10]; mouse liver microsomes, predicted intrinsic clearance): 286 mL/min/kg; CLint scaled at 1 μM [11, 13]: 172 mL/min/kg; half-life at 1 μM ([11]; rat, pH 7.4): 14.4 min

Source: article PMC11245370, “3-Position Biaryl Endochin-like Quinolones with Enhanced Antimalarial Performance” (ACS Infectious Diseases, 2024)
